According to patent publication US8552193B2, “Alternative forms of the phosphodiesterase-4 inhibitor N-cyclopropyl-1-{3-[(1-oxidopryidin-3-yl)ethynyl]phenyl}-4-oxo-1,4-dihydro-1,8-naphthyridine-3-carboxyamide” (Merck Sharp & Dohme Corp., priority 2004, dated 2013):

Assays:
[1] = Hygroscopicity: moisture sorption isotherms on a dynamic moisture balance; assay type: physicochemical
Procedure: The moisture sorption isotherms of Form V was determined at 25° C. using a dynamic moisture balance (MB-300G) (VTI Corp., Hialeah, Fla.) calibrated for weight with 10 to 100 mg standard weights and for moisture with polyvinylpyrrolidone. The value for the weight equilibrium criterion for each relative humidity is calculated based on the weight of the sample and the drift in the balance (0.001 mg). A value of 8 min. was used for the time criteria. The moisture sorption profile of the dihydrate (Form V) (Adsorption 1/Desorption 1) after drying in vacuo for 2 h is shown in FIG. 5. Form V dehydrates on drying to a different crystal form as shown by vacuum X-ray powder diffraction in FIG. 6, losing approximately 8% by weight. For purposes of this specification, this dehydrated dihydrate is identified as […]. This form appears to be the same as that obtained by heating the sample at 125° C., but different from that obtained on drying at 60° C. in air for 24 h. The latter form is identified as Form III. The Form II (dehydrated dihydrate) is hygroscopic converting to a hemihydrate between ca. 10-40% RH and a tetrahydrate at 90% RH (FIG. 5 and FIG. 7). However, the XRPD pattern for the hemihydrate is the same as that of the dehydrated dihydrate (Form II). For purposes of this specification this hemihydrate and tetrahydrate are identified as Form II and Form IV, respectively.
Form I is non-hygroscopic with a maximum weight change of ca. 1% at 90% RH. On desorption, the tetrahydrate (Form IV) remains unchanged between 90-60% RH but converts to dihydrate (Form V) at 45-15% RH (FIG. 5 and FIG. 8).
Since the X-ray diffraction patterns of the dehydrated dihydrate and the hemihydrate are the same, we conclude that the hemihydrate is isostructural with the dehydrated dihydrate form obtained on drying in vacuo. […]

[2] = Thermal stability: heating the sample for 24 h at 60° C. in air; assay type: physicochemical
Procedure: The thermal stability of the Form V was evaluated by heating the sample for 24 h at 60° C. in air. The dihydrate (Form V) readily dehydrates within 10 min of heating losing approximately 8.5% by weight (corresponding to ca. 2 moles of water per mole base).

| Molecule | weight lost on drying (dehydration to a different crystal form) ([1]; drying in vacuo for 2 h) | time of heating until dehydration [2] | weight lost on heating (dehydration) [2] | Hygroscopicity (in words) ([1]; 25° C., dynamic moisture balance) | maximum weight change ([1]; at 90% RH, 25° C.) |
| --- | --- | --- | --- | --- | --- |
| Compound IX Dihydrate [Dihydrate (Form V)] | approximately 8 % by weight | ≤ 10 min | approximately 8.5 % by weight |  |  |
| O=C(NC1CC1)c1cn(-c2cccc(C#Cc3ccc[n+]([O-])c3)c2)c2ncccc2c1=O [Form I, N-Cyclopropyl-1-{3-[(1-oxidopryidin-3-yl)ethynyl]phenyl}-4-oxo-1,4-dihydro-1,8-naphthyridine-3-carboxyamide] |  |  |  | non-hygroscopic | ca. 1% |
